Laboratory results reported in patent publication EP2678315B1, “(Pyridin-4-yl)benzylamides as allosteric modulators of alpha 7 nAChR” (Janssen Pharmaceutica, N.V., priority 2011, dated 2012).
Where two headings read alike, the source gives them in different places.

Biological target: T1, human alpha 7-wt nAChR (Homo sapiens, UniProt P36544)
T1 construct: expressed in transfected cells
Test: Ca2+ flux imaging (FDSS) (protocol B)
Type: cell-based
Settings: for EC50: read-out: pEC50 (converted); for Emax: read-out: % Efficacy
Description: Example D.1 : Ca^2+ flux imaging (FDSS) (protocol B)
• a) Assay buffer Hanks buffered saline solution (HBSS, Invitrogen, Belgium), supplemented with 10 mM HEPES (Invitrogen, Belgium), CaCl2 to a final concentration of 5 mM, 0.1 % Bovine serum albumin (Sigma-Aldrich NV, Belgium). • b) Calcium-sensitive dye - Fluo-4AM Fluo-4AM (Molecular Probes, USA) was dissolved in DMSO containing 10% Pluronic acid (Molecular Probes, USA) to give a stock solution which was diluted in assay buffer supplemented with 5 mM probenicid (Sigma, Aldrich NV, Belgium) to give a final concentration of 2 µM • c) 384-well plates Black-sided, transparent bottomed 384 well plates coated with poly-D-lysine, PDL pre-coated (Coming, Incorporated, USA) • d) Calcium flux measurement A Functional drug screening system (FDSS, Hamamatsu) was used to measure intracellular free-calcium flux signals.
Monolayers of human alpha 7-wt nAChR-expressing cells were grown in black-sided, transparent bottomed 384 well plates coated with PDL for 24 hours prior to loading with a fluorescent calcium indicator, fluo-4AM for up to 120 minutes.
PAM activity was detected in real time by applying the compounds to be tested to the loaded cells along with an alpha 7 nicotinic receptor agonist during constant monitoring of cellular fluorescence in a FDSS. Compounds giving peak fluorescent responses greater than the response due to agonist alone, were consideted to be alpha 7 nAChR PAMs. The alpha 7 nicotinic receptor agonist was choline, applied at a sub-maximal concentration of 100 µM. In a further setting of the present invention the compounds were applied prior to the alpha 7 nicotinic receptor agonist, in a particular 10 minutes prior to the agonist.
A control response to choline was calculated on each plate from the difference in peak in fluorescence in wells receiving either choline or assay buffer alone. Compounds of the present invention were tested at a concentration range from 0.01 µM to 30 µM. Compounds were considered to have an interesting activity when they potentiated the choline signal at least with 200 % when tested at a concentration of 30 µM (the efficacy of 100 µM choline was defined as 100% in the absence of a PAM). An EC50 (or pEC50) was determined as a concentration relating to half the maximal effect, when a clear sigmoidal curve with top plateau was obtained.

T1 sequence (P36544 23-502): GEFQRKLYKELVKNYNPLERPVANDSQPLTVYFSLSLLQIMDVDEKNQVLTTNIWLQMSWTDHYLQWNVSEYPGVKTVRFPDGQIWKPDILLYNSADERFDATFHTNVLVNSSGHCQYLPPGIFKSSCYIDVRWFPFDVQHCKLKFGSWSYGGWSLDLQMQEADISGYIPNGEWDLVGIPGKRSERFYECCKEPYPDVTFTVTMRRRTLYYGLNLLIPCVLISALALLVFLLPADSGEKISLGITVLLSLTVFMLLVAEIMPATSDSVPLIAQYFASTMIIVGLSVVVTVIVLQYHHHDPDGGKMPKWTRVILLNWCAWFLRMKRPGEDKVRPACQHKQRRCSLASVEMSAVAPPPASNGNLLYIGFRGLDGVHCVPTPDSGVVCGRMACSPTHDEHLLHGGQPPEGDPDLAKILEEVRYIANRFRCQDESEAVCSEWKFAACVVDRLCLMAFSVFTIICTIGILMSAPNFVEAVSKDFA

Compound	EC50 (Ca2+ assay as described in D.1) [nM]	Emax [%]	Emax (Ca2+ assay as described in D.1) [%]
Cc1cc(-c2ccc(N3C[C@H](C(F)(F)F)C[C@H](C(F)(F)F)C3)cc2CNC(=O)C(C)C)cc(C)n1 [Compound 23]	15.8	322	–
Cc1cc(-c2ccc(N3CCOCC3)cc2CNC(=O)CC2CC2)cc(C)n1 [Compound 24]	1780	466	–
Cc1cc(-c2ccc(N3CCOCC3)cc2CNC(=O)c2cc(C)on2)cc(C)n1 [Compound 25]	6170	654	–
Cc1cc(-c2ccc(N3CCOCC3)cc2CNC(=O)c2conc2C)cc(C)n1 [Compound 26]	457	202	–
Cc1cc(-c2ccc(N3CCOCC3)cc2CNC(=O)c2ccc(F)cc2C)cc(C)n1 [Compound 27]	57.5	419	–
Cc1cc(-c2ccc(N3CCOCC3)cc2CNC(=O)CC(F)(F)F)cc(C)n1 [Compound 28]	–	–	111
Cc1cc(-c2ccc(N3CCOCC3)cc2CNC(=O)C(C)C)cc(C)n1 [Compound 29]	813	256	–
Cc1cc(-c2ccc(N3CCOCC3)cc2CNC(=O)C2CC2)cc(C)n1 [Compound 30]	–	–	260
Cc1cc(-c2ccc(N3CCOCC3)cc2CNC(=O)c2ccc(F)cc2C)ccn1 [Compound 31]	479	576	–
Cc1cc(-c2ccc(N3CCCC(C(F)(F)F)C3)cc2CNC(=O)c2conc2C)cc(C)n1 (centres unmarked) [Compound 32]	–	–	72.4
Cc1cc(-c2ccc(N3CCCC(C(F)(F)F)C3)cc2CNC(=O)c2ccc(F)cc2C)cc(C)n1 (centres unmarked) [Compound 33]	245	278	–
Cc1cc(-c2ccc(N3CCCC(C(F)(F)F)C3)cc2CNC(=O)c2cc(C)on2)cc(C)n1 (centres unmarked) [Compound 34]	537	405	–
Cc1cc(-c2ccc(N3CCCC(C(F)(F)F)C3)cc2CNC(=O)CC2CC2)cc(C)n1 (centres unmarked) [Compound 35]	26.3	389	–
Cc1cc(-c2ccc(N3CCCC(C(F)(F)F)C3)cc2CNC(=O)C(C)C)cc(C)n1 (centres unmarked) [Compound 36]	–	–	131
Cc1cc(-c2ccc(N3C[C@@H](C)O[C@@H](C)C3)c(F)c2CNC(=O)CC2CC2)cc(C)n1 [Compound 37]	295	–	–
Cc1cc(-c2ccc(N3C[C@@H](C)O[C@@H](C)C3)c(F)c2CNC(=O)c2cc(C)on2)cc(C)n1 [Compound 38]	977	–	–
Cc1cc(-c2ccc(N3C[C@@H](C)O[C@@H](C)C3)c(F)c2CNC(=O)c2conc2C)cc(C)n1 [Compound 39]	832	–	–
Cc1cc(-c2ccc(N3C[C@@H](C)O[C@@H](C)C3)c(F)c2CNC(=O)c2ccc(F)cc2C)cc(C)n1 [Compound 40]	41.7	–	–
Cc1cc(-c2ccc(N3C[C@@H](C)O[C@@H](C)C3)c(F)c2CNC(=O)C(C)C)cc(C)n1 [Compound 41]	575	–	–
Cc1cc(-c2ccc(N3C[C@@H](C)O[C@@H](C)C3)c(F)c2CNC(=O)C2CC2)cc(C)n1 [Compound 42]	1170	–	–
Cc1cc(-c2ccc(N3C[C@@H](C)O[C@@H](C)C3)c(F)c2CNC(=O)CC(C)C)cc(C)n1 [Compound 43]	120	–	–
Cc1cc(-c2ccc(N3C[C@@H](C)O[C@@H](C)C3)c(F)c2CNC(=O)CCCC(F)(F)F)cc(C)n1 [Compound 44]	316	–	–
Cc1cc(-c2ccc(N3C[C@@H](C)O[C@@H](C)C3)c(F)c2CNC(=O)CC2CCC2)cc(C)n1 [Compound 45]	138	–	–
Cc1cc(-c2ccc(N3C[C@@H](C)O[C@@H](C)C3)c(F)c2CNC(=O)C2CCCCC2)cc(C)n1 [Compound 46]	91.2	–	–
Cc1cc(-c2ccc(N3C[C@@H](C)O[C@@H](C)C3)c(F)c2CNC(=O)CC(C)(C)C)cc(C)n1 [Compound 48]	24	–	–
Cc1cc(-c2ccc(N3C[C@@H](C)O[C@@H](C)C3)c(F)c2CNC(=O)c2cnc(Cl)cc2Cl)cc(C)n1 [Compound 51]	148	–	–
Cc1cc(-c2ccc(N3C[C@@H](C)O[C@@H](C)C3)c(F)c2CNC(=O)c2cccc(Cl)c2F)cc(C)n1 [Compound 52]	479	–	–
Cc1cc(-c2ccc(N3CCO[C@@H](C(F)(F)F)C3)c(F)c2CNC(=O)C(C)C)cc(C)n1 [Compound 56]	155	–	–
